Results from ChEMBL document CHEMBL2216752, “Carnitine palmitoyltransferase (CPT) modulators: a medicinal chemistry perspective on 35 years of research” (J Med Chem, 2011).
Values belong to the molecule of their own block, whether it stands above or below them.

What was measured:
[1] = tested on: Canis familiaris; experiment: Reduction in blood glucose in alloxan -treated dog at 7.5 mg/kg, po administered as single dose measured 6 hrs post dose (reference value: 9 mM); type: functional, Canis lupus familiaris
[2] = tested on: Canis familiaris; experiment: Reduction in fasting glucose in STZ-treated dog at 2.5 mg/kg/day, po for 7 days; type: functional, Canis lupus familiaris; parameters: scale not given: the % may be the effect or the level left
[3] = tested on: Mus musculus; experiment: Reduction in blood glucose in fasted db/db mouse at 50 to 100 mg/kg, po measured 2 to 4 hrs post dose; type: functional; parameters: scale not given: the % may be the effect or the level left
[4] = tested on: Canis familiaris; experiment: Reduction in blood glucose in STZ-treated dog at 0.7 to 2 mg/kg/day, po for 7 days measured 6 hrs post dose (reference value: 9 mM); type: functional, Canis lupus familiaris
[5] = tested on: Rattus norvegicus; experiment: Reduction in KB level in alloxan-treated rat at 25 to 50 mg/kg, po measured 2 to 5 hrs post dose; type: functional; parameters: scale not given: the % may be the effect or the level left
[6] = tested on: Rattus norvegicus; experiment: Suppression of labeled pyruvate conversion to [14C]glucose in Sprague-Dawley rat at 10 to 20 mg/kg, po; type: functional; conditions: dose mg/kg 10-20
[7] = Inhibition of carnitine palmitoyltransferase hemidiaphragms isolated from fasted pretreated rat assessed as reduction of [14]CO2 production from [1-14]-palmitate or [14C]-oleate
[8] = Inhibition of carnitine palmitoyltransferase in rat liver mitochondria assessed as formation of formation of palmitoyl[3H]carnitine from palmitoyl-CoA and [3H]carnitine
[9] = tested on: Mus musculus; experiment: Reduction in blood glucose in fed db/db mouse at 50 to 100 mg/kg, po measured 2 to 4 hrs post dose; type: functional; parameters: scale not given: the % may be the effect or the level left
[10] = tested on: Rattus norvegicus; experiment: Reduction in glucose carbon recycling in Wistar rat at 60 mg/kg, iv over 5.5 hrs; type: functional; parameters: scale not given: the % may be the effect or the level left
[11] = tested on: Sus scrofa; experiment: Reduction in plasma glucose in 48 hrs fasted pig at 20 mg, iv measured 5 hrs post dose; type: functional; parameters: scale not given: the % may be the effect or the level left
[12] = tested on: Rattus norvegicus; experiment: Reduction in blood 3-OH-butyrate in Wistar rat at 60 mg/kg, iv over 5.5 hrs (reference value: 1 mM); type: functional
[13] = tested on: Rattus norvegicus; experiment: Reduction in plasma glucose in Wistar rat at 60 mg/kg, iv over 5.5 hrs; type: functional; parameters: scale not given: the % may be the effect or the level left
[14] = tested on: Rattus norvegicus; experiment: Reduction in whole body glucose utilization in Wistar rat at 60 mg/kg, iv over 5.5 hrs; type: functional; parameters: scale not given: the % may be the effect or the level left
[15] = Inhibition of Phospholipase A2

EC50 [7]: 1000 nM | IC50 [8]: 46 nM
SMILES: CCCCCCCCCCCCCCC1(C(=O)OC)CO1 (racemic) [METHYL PALMOXIRATE]
Activity [1]: 6.5 mM | Activity [2]: 8% | Activity [3]: 78% | Activity [4]: 6.5 mM | Activity [5]: 70% | Activity [6]: 50% | Activity [9]: 40%

SMILES: O=C(O)C1(CCCCCCOc2ccc(Cl)cc2)CO1 (racemic)
Activity [10]: 30% | Activity [11]: 50% | Activity [12]: 0.03 mM | Activity [13]: 25% | Activity [14]: 14%

IC50 [15]: 2600 nM
SMILES: COC(=O)C1(C(F)CCCCc2ccccc2)CO1 (stereo not given)
